Data on 1 molecule can be found in patent publication US6395748B2, “Tropane-derivatives, their preparation and use” (NeuroSearch A/S, priority 1996, dated 2002).

The target of one assay is T1, dopamine transporter (Rattus norvegicus, UniProt P23977).
T1 construct: Corpi striati from male Wistar rats (150-200 g) are homogenized; from tissue; host or cells: rat striatal synaptosomes (P2 pellet)
Nature of the assay: In vitro inhibition of 3H-dopamine (3H-DA) uptake in striatal synaptosomes. The format is biochemical. The procedure: Monoamine oxidase activity will be inhibited in the presence of pargyline. The homogenate is centrifuged at 1000×g for 10 min. The resulting supernatant is then centrifuged at 27,000×g for 50 min and the supernatant is discarded.
After incubation the samples are poured directly onto Whatman GF/C glass fibre filters under suction. The filters are then washed three times with 5 ml of ice-cold 0.9% (w/v) NaCl solution. The amount of radioactivity on the filters is determined by conventional liquid scintillation counting. Specific uptake is calculated as the difference between total uptake and non-specific uptake.

A further assay deals with T2, serotonin transporter (Rattus norvegicus, UniProt P31652).
T2 construct: Cerebral cortices from male Wistar rats (150-200 g) are homogenized; from tissue; host or cells: rat cerebral cortex synaptosomes (P2 pellet)
Description: In vitro inhibition of 3H-5-hydroxytryptamine (3H-5-HT, serotonin) uptake in cortical synaptosomes. The format is biochemical. Here is the method: Tissue preparation: Preparations are performed at 0-4° C. unless otherwise indicated. […] Monoamine oxidase activity will be inhibited in the presence of pargyline. The homogenate is centrifuged at 1000×g for 10 min.
Non-specific uptake is determined using citalopram (1 μM, final concentration). After incubation the samples are poured directly onto Whatman GF/C glass fibre filters under suction. The filters are then washed three times with 5 ml of ice-cold 0.9% (w/v) NaCl solution. The amount of radioactivity on the filters is determined by conventional liquid scintillation counting. Specific uptake is calculated as the difference between total uptake and non-specific uptake.

T1 sequence (P23977 whole entry): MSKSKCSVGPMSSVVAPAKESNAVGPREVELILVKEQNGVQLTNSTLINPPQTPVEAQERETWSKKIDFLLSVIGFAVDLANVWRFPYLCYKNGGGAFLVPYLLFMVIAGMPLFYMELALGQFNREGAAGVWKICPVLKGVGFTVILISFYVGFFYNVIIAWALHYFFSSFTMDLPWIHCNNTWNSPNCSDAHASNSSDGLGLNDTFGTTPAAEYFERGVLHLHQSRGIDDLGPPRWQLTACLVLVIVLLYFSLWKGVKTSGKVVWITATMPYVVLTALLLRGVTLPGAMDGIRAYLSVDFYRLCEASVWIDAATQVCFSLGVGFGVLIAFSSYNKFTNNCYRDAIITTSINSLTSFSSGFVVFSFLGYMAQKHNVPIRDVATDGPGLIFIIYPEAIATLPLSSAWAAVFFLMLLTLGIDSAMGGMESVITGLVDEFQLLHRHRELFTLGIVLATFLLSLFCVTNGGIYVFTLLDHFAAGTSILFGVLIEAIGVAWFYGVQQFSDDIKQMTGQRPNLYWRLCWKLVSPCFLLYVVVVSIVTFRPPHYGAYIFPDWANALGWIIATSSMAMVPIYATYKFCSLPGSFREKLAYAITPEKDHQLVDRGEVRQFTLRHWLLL
T2 sequence (P31652 whole entry): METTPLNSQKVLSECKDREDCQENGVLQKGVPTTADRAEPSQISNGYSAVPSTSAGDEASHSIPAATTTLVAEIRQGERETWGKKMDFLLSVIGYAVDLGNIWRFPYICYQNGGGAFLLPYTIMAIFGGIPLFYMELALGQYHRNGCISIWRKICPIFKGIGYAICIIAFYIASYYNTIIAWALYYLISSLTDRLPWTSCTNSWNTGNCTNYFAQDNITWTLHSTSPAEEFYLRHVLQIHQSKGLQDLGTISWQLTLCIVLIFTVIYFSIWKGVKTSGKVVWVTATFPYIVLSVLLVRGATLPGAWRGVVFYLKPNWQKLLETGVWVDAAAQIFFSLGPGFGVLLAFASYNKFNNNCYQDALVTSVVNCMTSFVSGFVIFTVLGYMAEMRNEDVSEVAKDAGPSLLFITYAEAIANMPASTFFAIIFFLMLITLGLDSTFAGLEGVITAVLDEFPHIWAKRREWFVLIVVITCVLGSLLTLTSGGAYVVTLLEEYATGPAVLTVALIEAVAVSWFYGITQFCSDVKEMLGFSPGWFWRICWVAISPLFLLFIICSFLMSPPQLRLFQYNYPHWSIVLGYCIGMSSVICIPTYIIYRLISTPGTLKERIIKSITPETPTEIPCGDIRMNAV

As to `CN1[C@H]2CC[C@@H]1[C@H](CSc1ccccc1)[C@@H](c1ccc(Cl)c(Cl)c1)C2` [(1R,2R,3S)-2-phenylthiomethyl-3-(3,4-dichlorophenyl)-tropane], the IC50 against dopamine transporter came out at 4.3 nM; against serotonin transporter it was 9.2 nM.
